Results on nine compounds are retold here after patent US20250136586A1, “Substituted 7-(Pyrimidin-4-yl)Quinolin-4(1H)-One Compounds as Cyclin Dependent Kinase Inhibitors” (BeiGene, Ltd., priority 2022, published 2025).

Experiment [1] deals with CDK6/Cyclin D3 (Homo sapiens (Human), UniProt Q00534). Nature of the experiment: TR-FRET kinase inhibition assay, CDK6/Cyclin D3. It counts as biochemical. Particulars: 1 mM ATP, 0.15 μM Rb (Ser780)-biotin substrate, read-out: CDK6D3 IC50. In short, it runs like this:
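Kinase preincubated 60 min at room temperature with 0–10 μM compound; reaction started with 1 mM ATP and 0.15 μM Rb (Ser780)-biotin, run 120 min at room temperature in HEPES pH 7.0, 50 mM MgCl2. pRb detected by TR-FRET (665/620 nm ratio); IC50 from four-parameter logistic fit.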
On the technique in general: TR-FRET usually uses a lanthanide donor and a delayed reading to cut background.

Experiment [2] concerns the target CDK4/Cyclin D1 (Homo sapiens (Human), UniProt P11802). Nature of the experiment: TR-FRET kinase inhibition assay, CDK4/Cyclin D1. Type of experiment: biochemical. The settings on record: 1 mM ATP, 0.15 μM Rb (Ser780)-biotin substrate, read-out: CDK4D1 IC50. In short, it runs like this: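 Kinase was preincubated with compound for 60 min at room temperature, then reacted with ATP and Rb (Ser780)-biotin substrate for 120 min. IC50 came from a four-parameter logistic fit.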

pIC50: −log10 of the molar value.

Chain of CDK4/Cyclin D1 (P11802 whole entry): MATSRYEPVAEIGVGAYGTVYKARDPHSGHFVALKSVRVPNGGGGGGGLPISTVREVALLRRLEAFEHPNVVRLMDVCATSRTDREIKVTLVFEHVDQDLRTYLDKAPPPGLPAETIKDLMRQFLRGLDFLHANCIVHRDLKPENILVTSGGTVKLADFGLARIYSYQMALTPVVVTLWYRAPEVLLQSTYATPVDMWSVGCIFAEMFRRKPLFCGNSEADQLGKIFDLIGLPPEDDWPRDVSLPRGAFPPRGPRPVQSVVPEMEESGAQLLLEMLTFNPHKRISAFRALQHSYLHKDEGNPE
Chain of CDK4/Cyclin D1 (P24385 whole entry partner): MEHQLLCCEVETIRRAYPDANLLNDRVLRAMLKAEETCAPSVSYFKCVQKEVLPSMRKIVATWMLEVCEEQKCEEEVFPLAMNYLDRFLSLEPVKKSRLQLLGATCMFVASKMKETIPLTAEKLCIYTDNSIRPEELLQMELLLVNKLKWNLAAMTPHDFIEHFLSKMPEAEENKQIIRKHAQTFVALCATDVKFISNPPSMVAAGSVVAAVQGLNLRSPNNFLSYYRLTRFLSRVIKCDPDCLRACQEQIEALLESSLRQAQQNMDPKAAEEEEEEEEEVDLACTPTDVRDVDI
Chain of CDK6/Cyclin D3 (Q00534 whole entry): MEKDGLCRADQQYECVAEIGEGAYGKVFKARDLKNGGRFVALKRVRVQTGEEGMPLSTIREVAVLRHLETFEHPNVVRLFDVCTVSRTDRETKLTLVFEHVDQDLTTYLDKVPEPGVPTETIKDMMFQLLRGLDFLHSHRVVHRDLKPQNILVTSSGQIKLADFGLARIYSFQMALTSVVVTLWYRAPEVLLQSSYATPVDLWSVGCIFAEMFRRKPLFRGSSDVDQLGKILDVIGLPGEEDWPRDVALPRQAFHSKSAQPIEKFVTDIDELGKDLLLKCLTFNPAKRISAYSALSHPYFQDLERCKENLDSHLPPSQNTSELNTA
Chain of CDK6/Cyclin D3 (P30281 whole entry partner): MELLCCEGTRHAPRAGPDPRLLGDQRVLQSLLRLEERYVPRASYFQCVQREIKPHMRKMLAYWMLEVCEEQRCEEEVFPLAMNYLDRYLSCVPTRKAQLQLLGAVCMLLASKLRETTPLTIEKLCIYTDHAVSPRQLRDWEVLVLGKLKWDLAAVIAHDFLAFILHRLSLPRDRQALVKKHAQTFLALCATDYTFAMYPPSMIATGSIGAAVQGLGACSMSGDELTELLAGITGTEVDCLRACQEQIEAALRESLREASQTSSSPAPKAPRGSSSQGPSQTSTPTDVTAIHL

As to `CC(C)n1c(CN[C@@H]2CCOC2)cc(=O)c2ccc(-c3nc(N[C@@H]4CCOC[C@H]4O)ncc3F)cc21` [Example 65, 7-(5-fluoro-2-(((3S,4R)-3-hydroxytetrahydro-2H-pyran-4-yl)amino)pyrimidin-4-yl)-1-isopropyl-2-((((R)-tetrahydrofuran-3-yl)amino)methyl)quinolin-4(1H)-one], the figures for the pIC50 in experiment [1] and in experiment [2] were 6.13 and 7.51, respectively.
On the same counts, the results for `CC(C)n1c(CN2CCO[C@@H](C)C2)cc(=O)c2ccc(-c3nc(N[C@@H]4CCOC[C@H]4O)ncc3F)cc21` [Example 62, 7-(5-fluoro-2-(((3S,4R)-3-hydroxytetrahydro-2H-pyran-4-yl)amino)pyrimidin-4-yl)-1-isopropyl-2-(((S)-2-methylmorpholino)methyl)quinolin-4(1H)-one] are 6.59 and 7.77.
For `CC(C)n1c(CN2C[C@H](O)[C@@H](F)C2)cc(=O)c2ccc(-c3nc(N[C@@H]4CCOC[C@H]4O)ncc3F)cc21` [Example 32, 7-(5-fluoro-2-(((3S,4R)-3-hydroxytetrahydro-2H-pyran-4-yl)amino)pyrimidin-4-yl)-2-(((3S,4S)-3-fluoro-4-hydroxypyrrolidin-1-yl)methyl)-1-isopropylquinolin-4(1H)-one] the same measures were 6.70 and 8.00.
On the same counts, the results for `CC(C)n1c(CN2CCC[C@@]3(CCN(C)C3=O)C2)cc(=O)c2ccc(-c3nc(N[C@@H]4CCOC[C@H]4O)ncc3F)cc21` [Example 51, (R)-7-((7-(5-fluoro-2-(((3S,4R)-3-hydroxytetrahydro-2H-pyran-4-yl)amino)pyrimidin-4-yl)-1-isopropyl-4-oxo-1,4-dihydroquinolin-2-yl)methyl)-2-methyl-2,7-diazaspiro[4,5]decan-1-one] are 6.19 and 7.27.
With `Cc1c(CN2CCOCC23CC3)n(C(C)C)c2cc(-c3nc(N[C@@H]4CCOC[C@H]4O)ncc3F)ccc2c1=O` [Example 117, 2-((7-oxa-4-azaspiro[2.5]octan-4-yl)methyl)-7-(5-fluoro-2-(((3S,4R)-3-hydroxytetrahydro-2H-pyran-4-yl)amino)pyrimidin-4-yl)-1-isopropyl-3-methylquinolin-4(1H)-one], the values for the pIC50 in experiment [1] and in experiment [2] were 7.01 and 8.72, respectively.
On the same counts, the results for `Cc1c(CN2CC[C@@H](F)C2)n(C(C)C)c2cc(-c3nc(N[C@@H]4CCOC[C@H]4O)ncc3F)ccc2c1=O` [Example 92, 7-(5-fluoro-2-(((3S,4R)-3-hydroxytetrahydro-2H-pyran-4-yl)amino)pyrimidin-4-yl)-2-(((R)-3-fluoropyrrolidin-1-yl)methyl)-1-isopropyl-3-methylquinolin-4(1H)-one] are 6.88 and 8.39.
On the same counts, the results for `CC(C)n1c(CN2CCC(C)(C)C2)cc(=O)c2ccc(-c3nc(N[C@@H]4CCOC[C@H]4O)ncc3F)cc21` [Example 42, 2-((3,3-dimethylpyrrolidin-1-yl)methyl)-7-(5-fluoro-2-(((3S,4R)-3-hydroxytetrahydro-2H-pyran-4-yl)amino)pyrimidin-4-yl)-1-isopropylquinolin-4(1H)-one] are 6.19 and 7.82.
On the same counts, the results for `CC(C)n1cc(C(C)(C)O)c(=O)c2ccc(-c3nc(N[C@@H]4CCOC[C@H]4O)ncc3F)cc21` [Example 5, 7-(5-fluoro-2-(((3S,4R)-3-hydroxytetrahydro-2H-pyran-4-yl)amino)pyrimidin-4-yl)-3-(2-hydroxypropan-2-yl)-1-isopropylquinolin-4(1H)-one] are 5.49 and 6.60.
With `CC(C)n1c(CN2C3COCC2C3)cc(=O)c2ccc(-c3nc(N[C@@H]4CCOC[C@H]4O)ncc3F)cc21` [Example 68, 2-((3-oxa-6-azabicyclo[3.1.1]heptan-6-yl)methyl)-7-(5-fluoro-2-(((3S,4R)-3-hydroxytetrahydro-2H-pyran-4-yl)amino)pyrimidin-4-yl)-1-isopropylquinolin-4(1H)-one], the results for the pIC50 in experiment [1] and in experiment [2] were 5.91 and 7.47, respectively.
